Assay results reported in PubChem BioAssay AID720512 (Broad Institute, 2013).
Activity calls are given as the source filed them. How the calls were made is not given here.

Target: Toxin B (TcdB) glycohydrolase, Clostridioides difficile 630
Test: TcdB glycohydrolase inhibitors, dose response, biochemical, cherry-pick, plate reader (AID 720512)
Details: recombinant TcdB glycohydrolase activity, at 19.5 µM (top of the series)

Q: How did the “activity change, negative = inhibition” value turn out when `CC(C)Cc1nnc(NC(=O)CCC(=O)NCc2ccccc2Cl)s1` was run?
A: The value was “inactive”.

Q: For `CC(=O)Nc1ccc(S(=O)(=O)N2CCCC(C(=O)O)C2)cc1` (stereo unspecified), which “activity change, negative = inhibition” value is on record?
A: Its value is “inactive”.

Q: How did the “activity change, negative = inhibition” value turn out when `COc1ccc(/C=C/c2nc3ccccc3n2C)cc1` was run?
A: Its value is “inactive”.

Q: How did the “activity change, negative = inhibition” value turn out when `CNC(=O)C1CCN(S(=O)(=O)c2c(C)noc2/C=C/c2ccc(C)cc2)CC1` was run?
A: The value was “inactive”.

Q: For `Cc1ccc(/C=C/c2onc(C)c2S(=O)(=O)N2CCC(C(=O)NC(C)(C)C)CC2)cc1`, which “activity change, negative = inhibition” value is on record?
A: Its value is “inactive”.

Q: Which “activity change, negative = inhibition” value does the source give for `O=C(O)c1ccc(-c2nnc(-c3ccccc3)o2)cc1` here?
A: Its value is “inactive”.

Q: Which “activity change, negative = inhibition” value does the source give for `COc1cccc(C(=O)OCC(=O)Nc2cc(C)on2)c1OC` here?
A: The value was “inactive”.

Q: Which “activity change, negative = inhibition” value does the source give for `Cn1c(=O)[nH]c(=O)c2c1[nH]c(=S)n2Cc1ccc(Cl)cc1` here?
A: The value was “inactive”.

Q: How did the “activity change, negative = inhibition” value turn out when `O=C(O)c1ccc(/C=N/NC(=S)NCCN2CCOCC2)cc1` was run?
A: Its value is “inactive”.

Q: How did the “activity change, negative = inhibition” value turn out when `CC(=O)Nc1cc(-c2ccc(F)cc2)[nH]n1` was run?
A: Its value is “inactive”.

Q: How did the “activity change, negative = inhibition” value turn out when `Cc1ccccc1NS(=O)(=O)c1ccc(OCC(=O)N2CCCCC2)cc1` was run?
A: The value was “inactive”.

Q: How did the “activity change, negative = inhibition” value turn out when `CCS(=O)(=O)c1ccc2oc(Nc3ccc(C(C)(C)C)cc3)nc2c1` was run?
A: Its value is “inactive”.

Q: How did the “activity change, negative = inhibition” value turn out when `Cc1ccc(C(=O)Nc2ncc([N+](=O)[O-])s2)cc1` was run?
A: Its value is “inactive”.

Q: With `COc1cc(O)ccc1C(=O)CCc1ccc(O)cc1` as the molecule, how does the “activity change, negative = inhibition” value read?
A: Its value is “inactive”.

Q: Which “activity change, negative = inhibition” value does the source give for `CC(=O)Nc1n[nH]c(=S)s1` here?
A: Its value is “inactive”.

Q: Which “activity change, negative = inhibition” value does the source give for `NS(=O)(=O)c1cccc(NC(=O)c2ccc(NS(=O)(=O)c3cccc([N+](=O)[O-])c3)cc2)c1` here?
A: The value was “inactive”.

Q: `O=C(Cn1cc(COc2ccc(Cl)c(Cl)c2)nn1)NS(=O)(=O)c1ccccc1OC(F)(F)F` was tested. Which “activity change, negative = inhibition” value did it give?
A: The value was “inactive”.

Q: For `CSc1ccccc1NC(=O)C1=CC(c2ccc(C)cc2)=NS(=O)(=O)N1C`, which “activity change, negative = inhibition” value is on record?
A: Its value is “inactive”.

Q: With `CCOC(=O)C(=O)NNc1ccc(Cl)cc1` as the molecule, how does the “activity change, negative = inhibition” value read?
A: The value was “inactive”.

Q: `CC(C)(C)OCC(O)CN1CCN(C(=O)c2ccccc2)CC1` (stereo unspecified) was tested. Which “activity change, negative = inhibition” value did it give?
A: Its value is “inactive”.

Q: With `Cc1cc(C)nc(SCC(=O)c2ccc(O)c(O)c2)n1` as the molecule, how does the “activity change, negative = inhibition” value read?
A: The value was “inactive”.

Q: With `CC(C)OC(=O)C(=O)NNc1ccccc1` as the molecule, how does the “activity change, negative = inhibition” value read?
A: The value was “inactive”.

Q: Which “activity change, negative = inhibition” value does the source give for `Oc1cc(O)cc(/C=C/c2ccc(O)c(O)c2)c1` here?
A: Its value is “inactive”.

Q: `CCc1ccc(NC(=O)c2cc(C)on2)cc1` was tested. Which “activity change, negative = inhibition” value did it give?
A: The value was “inactive”.

Q: How did the “activity change, negative = inhibition” value turn out when `CNC(=O)N(O)C1N(/N=C/c2cccs2)C(=S)SC1(C)C` (stereo unspecified) was run?
A: The value was “inactive”.

Q: How did the “activity change, negative = inhibition” value turn out when `O=C(N/N=C/c1ccc(O)c(O)c1)C1CC1` was run?
A: Its value is “inactive”.

Q: How did the “activity change, negative = inhibition” value turn out when `CCNC(=O)C[C@H]1CC[C@@H]2[C@H](COc3ccc(NC(C)=O)cc3C(=O)N2C)O1` was run?
A: The value was “inactive”.

Q: With `CCCC(=O)Nc1sc2c(c1C(=O)Nc1ccccn1)CCCC2` as the molecule, how does the “activity change, negative = inhibition” value read?
A: The value was “inactive”.

Q: Which “activity change, negative = inhibition” value does the source give for `COc1ccc(S(=O)(=O)N2CCC[C@H]2C(=O)N2CCC[C@H]2C(=O)NCc2ccncc2)cc1C` here?
A: The value was “inactive”.

Q: `CC1(C)CC(=O)C(C=Nc2ccc(N)cc2)=C(O)C1` was tested. Which “activity change, negative = inhibition” value did it give?
A: The value was “inactive”.

Q: `Cn1c(SCC(=O)c2cc3ccccc3o2)nnc1-c1ccccc1` was tested. Which “activity change, negative = inhibition” value did it give?
A: The value was “inactive”.

Q: With `CN1CCN(CC(=O)Nc2cc(N(C)C)nc3ccccc23)CC1` as the molecule, how does the “activity change, negative = inhibition” value read?
A: The value was “inactive”.

Q: `COc1ccc(NC(=O)Nc2nc(C)cc(C)n2)c(OC)c1` was tested. Which “activity change, negative = inhibition” value did it give?
A: The value was “inactive”.

Q: How did the “activity change, negative = inhibition” value turn out when `COc1cc(-c2noc(C)c2C#CC2(O)CCCCC2)cc(OC)c1OC` was run?
A: Its value is “inactive”.

Q: How did the “activity change, negative = inhibition” value turn out when `O=C(N/N=C/c1ccccn1)c1ccc([N+](=O)[O-])cc1Cl` was run?
A: Its value is “inactive”.

Q: Which “activity change, negative = inhibition” value does the source give for `NC(=O)C1(Nc2ccc(-c3ccc(Br)cc3)cc2)CCCC1` here?
A: Its value is “inactive”.

Q: How did the “activity change, negative = inhibition” value turn out when `COc1cc2[nH]c(=S)nc(NCCC(C)C)c2cc1OC` was run?
A: The value was “inactive”.

Q: Which “activity change, negative = inhibition” value does the source give for `COc1cc(NC(=O)CSc2nc3[nH]ncc3c(=O)n2-c2ccccc2C)cc(OC)c1OC` here?
A: The value was “inactive”.

Q: Which “activity change, negative = inhibition” value does the source give for `COC(=O)c1ccc(C23CC4(C2)[C@H](CN(Cc2ccc(C(F)(F)F)cc2)[C@@H]4c2ccccc2)C3c2ccc(Cl)nc2)cc1` (stereo partly specified) here?
A: The value was “inactive”.

Q: For `Nc1nnn(CC(=O)N/N=C/c2ccc(O)cc2)n1`, which “activity change, negative = inhibition” value is on record?
A: Its value is “inactive”.

Q: For `CC(=O)NC(Cc1ccccc1)C(=O)Oc1ccc2ccccc2c1` (stereo unspecified), which “activity change, negative = inhibition” value is on record?
A: The value was “inactive”.

Q: Which “activity change, negative = inhibition” value does the source give for `O=C(OCC(=O)N1CCCc2ccccc21)c1ccc(C(F)(F)F)cc1` here?
A: The value was “inactive”.

Q: `CC1(C)CCC/C(=C\c2ccccc2)C1=O` was tested. Which “activity change, negative = inhibition” value did it give?
A: Its value is “inactive”.

Same assay, conditions: recombinant TcdB glycohydrolase activity, at 21 µM (top of the series)

Q: With `COCC(=O)N1CC[C@@H]2[C@H]1c1cc(-c3cccc(OC)c3)ccc1N(C)[C@H]2CO` as the molecule, how does the “activity change, negative = inhibition” value read?
A: Its value is “inactive”.

Q: For `CCNC(=O)C[C@@H]1CC[C@H]2[C@@H](COc3ccc(NC(C)=O)cc3C(=O)N2C)O1`, which “activity change, negative = inhibition” value is on record?
A: The value was “inactive”.

Q: `CC(=O)N1CC[C@@H]2[C@@H](CO)Nc3ccc(-c4ccccc4)cc3[C@@H]21` was tested. Which “activity change, negative = inhibition” value did it give?
A: The value was “inactive”.
